Common to all, as to experiment: NCI-60 cell line screen, 48 h
Assay [1] concerns HL-60.
In assay [2] the test system is U-251.
Assay [3] concerns UACC-257.
The subject of assay [4] is SF-295.
Assay [5] has as its system Hs-578T.
The subject of assay [6] is Malme-3M.
For assay [7], the system named is LOX IMVI.
Assay [8] relates to SF-539.
The test system of assay [9] is RXF 393.
For assay [10], the system named is UACC-62.
The test system of assay [11] is NCI-H23.
In assay [12] the test system is NCI/ADR-RES.
In assay [13] the test system is HT-29.
Assay [14] relates to OVCAR-8.
The subject of assay [15] is SF-268.
For assay [16], the system named is HOP-62.
Assay [17] concerns MCF7.
Assay [18] relates to ACHN.
Assay [19] deals with SNB-19.
For assay [20], the system named is SR.

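A five-concentration, 48-hour dose response in 96-well plates underlies each endpoint, interpolated linearly between surrounding concentrations. GI50 = concentration required for 50% inhibition of growth.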 Activity calls are given as the source filed them. Rule as the data show it: active = GI50 up to about 1.1 µM and inactive = higher. Bounds are passed on as bounds.

As for `O=C(Nc1ccccc1C(=O)O)/C(=C/c1ccccc1)NC(=O)c1ccccc1`, the GI50 in assay [1], in assay [2], in assay [3], in [4], in [5] and in assay [6] was > 100 µM (inactive) throughout. In addition, the GI50 in assay [7] was > 100 µM (inactive); in assay [8], > 100 µM (inactive); in assay [9] it was 65.9 µM (inactive); in assay [10], > 100 µM (inactive); in [11], > 100 µM (inactive); in assay [12] it was > 100 µM (inactive). Moreover, the GI50 in assay [13], in [14], in assay [15], in assay [16], in [17] and in [18] was > 100 µM (inactive) each time. For the same molecule, the GI50 in assay [19] and in assay [20] was > 100 µM (inactive) each time.

With `C=C1c2nc3ccccc3n2C=C(c2ccccc2)N1c1ccc(Cl)cc1`, the GI50 in assay [1] is > 100 µM (inactive); in assay [2] it was 13.1 µM (inactive); in assay [3], 32.2 µM (inactive); in assay [4] it was 12.6 µM (inactive); in assay [5] it was 21.3 µM (inactive); in assay [6] it was 7.85 µM (inactive). The GI50 is 45.8 µM (inactive) in assay [7]; 7.89 µM (inactive) in assay [8]; 17.5 µM (inactive) in assay [9]; 19.1 µM (inactive) in [10]; 33.1 µM (inactive) in assay [11]; 23.6 µM (inactive) in assay [12]. Besides, the GI50 in assay [13] was 18.6 µM (inactive); in [14], 25.1 µM (inactive); in assay [15], > 100 µM (inactive); in [16], 18.7 µM (inactive); in assay [17] it was 11.2 µM (inactive); in assay [18], 9.18 µM (inactive). In addition, the GI50 was 46.1 µM (inactive) in assay [19] and 64.7 µM (inactive) in assay [20].

Regarding `CC(CCC(=O)O)C(=O)O` (configuration not stated), the GI50 in assay [1], in assay [2], in assay [3], in assay [4], in assay [5] and in assay [6] was > 100 µM (inactive) each time. Also, the GI50 in assay [7], in [8], in [9], in assay [10], in assay [11] and in [12] was > 100 µM (inactive) throughout. Also, the GI50 in assay [13], in assay [14], in [15], in assay [16], in [17] and in [18] was > 100 µM (inactive) in each case. For the same molecule, the GI50 in assay [19] and in assay [20] was > 100 µM (inactive) in each case.

Regarding `CN(N=O)c1ccc(/C=C/c2ccnc3ccccc23)cc1`, the GI50 in [1] is 92.3 µM (inactive); in assay [2], 54.8 µM (inactive); in assay [3], 72.4 µM (inactive); in [4] it was 41.4 µM (inactive); in [5], > 100 µM (inactive); in assay [6], 86.3 µM (inactive). The GI50 in assay [7] is 36.3 µM (inactive); in assay [8], 88.5 µM (inactive); in assay [9], 46.6 µM (inactive); in [10], 50.7 µM (inactive); in [11], > 100 µM (inactive); in assay [12], 83.4 µM (inactive). The GI50 in assay [13] is 43.3 µM (inactive); in assay [14], 58.1 µM (inactive); in assay [15], 79.8 µM (inactive); in assay [16] it was 78.3 µM (inactive); in assay [17], 53.8 µM (inactive); in assay [18] it was 47 µM (inactive). The GI50 was 46.5 µM (inactive) in assay [19] and 31.8 µM (inactive) in assay [20].

In the case of `O=[N+]([O-])c1cccc2nc3ccccc3c(NCCCN3CCOCC3)c12`, the GI50 in [1] is 0.0302 µM (active); in assay [2], 0.0276 µM (active); in assay [3] it was 0.0235 µM (active); in [4] it was 0.0256 µM (active); in assay [5] it was 0.0405 µM (active); in assay [6], 0.0142 µM (active). Besides, the GI50 in assay [7] was 0.0442 µM (active); in assay [8] it was 0.0283 µM (active); in [9], < 0.013 µM (active); in [10], 0.0163 µM (active); in assay [11], < 0.0129 µM (active); in [12], 0.044 µM (active). In addition, the GI50 is < 0.01 µM (active) in assay [13]; 0.012 µM (active) in [14]; 0.0226 µM (active) in assay [15]; < 0.016 µM (active) in assay [16]; < 0.0116 µM (active) in assay [17]; < 0.01 µM (active) in [18]. The results for the GI50 in [19] and in assay [20] were 0.0304 µM (active) and < 0.01 µM (active), respectively.

As for `CC(C)(C)OC(=O)NC(CCC(=O)OCc1ccccc1)C(=O)NCCCO` (configuration not stated), the GI50 in assay [1], in [2], in assay [3], in assay [5], in assay [6] and in [7] was > 100 µM (inactive) each time. The GI50 in assay [8], in [9], in assay [10], in [11], in assay [12] and in assay [13] was > 100 µM (inactive) each time. In addition, the GI50 in assay [14], in [15], in assay [16], in [17], in [18] and in [19] was > 100 µM (inactive) each time. Besides, the GI50 in assay [20] was > 100 µM (inactive).

Take `c1ccc2cc3c(NC4=NCCO4)cccc3cc2c1`: the GI50 is 25.9 µM (inactive) in assay [1]; > 100 µM (inactive) in assay [2]; 48.5 µM (inactive) in [3]; > 100 µM (inactive) in assay [4]; 41.8 µM (inactive) in [5]; 36.1 µM (inactive) in assay [6]. For the same molecule, the GI50 was 29.8 µM (inactive) in assay [7]; 97.5 µM (inactive) in assay [8]; > 100 µM (inactive) in [9]; > 100 µM (inactive) in assay [10]; 32.9 µM (inactive) in assay [11]; 75.2 µM (inactive) in assay [12]. The GI50 in assay [13] is 29.9 µM (inactive); in assay [14], 48.5 µM (inactive); in assay [15], 34.2 µM (inactive); in [16], > 100 µM (inactive); in assay [17], 68.7 µM (inactive); in assay [18] it was 68.1 µM (inactive). The GI50 in [19] was 78.7 µM (inactive); in [20], 36 µM (inactive).

For `CCC12CN(C(=O)OC)C3C(Br)C1CCC(=O)C32` (configuration not stated), the GI50 in assay [1], in [2], in assay [3], in assay [4], in assay [5] and in [6] was > 100 µM (inactive) in each case. For the same molecule, the GI50 in assay [7], in assay [8], in assay [9], in assay [10], in assay [11] and in assay [12] was > 100 µM (inactive) each time. Also, the GI50 in assay [13], in assay [14], in [15], in assay [16], in assay [17] and in [18] was > 100 µM (inactive) in each case. Moreover, the GI50 in assay [19] and in assay [20] was > 100 µM (inactive) throughout.

On to `CNS(=O)(=O)c1ccccc1C(=N)c1ccccc1`, for which the GI50 in [1], in [2], in [4], in assay [5], in assay [6] and in assay [7] was > 100 µM (inactive) throughout. For the same molecule, the GI50 in assay [8], in assay [9], in assay [10], in assay [11], in [12] and in [13] was > 100 µM (inactive) throughout. Moreover, the GI50 in [14], in assay [15], in [16], in assay [17], in assay [18] and in assay [19] was > 100 µM (inactive) each time. Also, the GI50 in assay [20] was > 100 µM (inactive).

Consider `COc1ccc2oc(=N)c(C(N)=S)cc2c1`, for which the GI50 in assay [1] is 14.3 µM (inactive); in assay [2], 29 µM (inactive); in assay [3] it was 26.9 µM (inactive); in assay [4], 37.1 µM (inactive); in assay [5], 23.2 µM (inactive); in assay [6], 14.1 µM (inactive). For the same molecule, the GI50 in assay [7] is 15.4 µM (inactive); in assay [8], 22.1 µM (inactive); in assay [9], 17 µM (inactive); in assay [10], 16 µM (inactive); in assay [12] it was 16.8 µM (inactive); in assay [13], 32 µM (inactive). In addition, the GI50 in assay [14] was 18.2 µM (inactive); in assay [15], 15.5 µM (inactive); in assay [16], 31.8 µM (inactive); in [17] it was 27.7 µM (inactive); in assay [18] it was 21.4 µM (inactive); in [19], 31.2 µM (inactive). In assay [20], the GI50 is 20 µM (inactive).

Values taken from ChEMBL document CHEMBL1201862, “PubChem BioAssay data set” (2004).
